The text below walks through data of paper PMC10601206, “Adaptive laboratory evolution of Rhodococcus rhodochrous DSM6263 for chlorophenol degradation under hypersaline condition” (Microbial Cell Factories, 2023).

Assay [1] deals with T1, PheA1A2 (PheA2A1, phenol monooxygenase) (Rhodococcus rhodochrous, UniProt A0ABY1MEQ0).
T1 construct: gene SAMN02745947_03917; both components co-expressed from pET28a in E. coli BL21(DE3), whole cells; with Phenol 2-monooxygenase, flavin reductase component
Briefly: HPLC of substrate depletion. It is filed as cell-based. The note with it: whole E. coli BL21(DE3) cells expressing PheA1A2; ortho hydroxylation.

Assay [2] concerns the target T1, PheA1A2 (PheA2A1, phenol monooxygenase). Nature of the assay: HPLC of substrate depletion, product by LC-MS. It is filed as cell-based. The note with it: whole E. coli BL21(DE3) cells expressing PheA1A2, OD600 15, 100 mM PBS, 0.5 mM 4-chlorophenol; ortho hydroxylation.

T1 sequence (A0ABY1MEQ0 1-537): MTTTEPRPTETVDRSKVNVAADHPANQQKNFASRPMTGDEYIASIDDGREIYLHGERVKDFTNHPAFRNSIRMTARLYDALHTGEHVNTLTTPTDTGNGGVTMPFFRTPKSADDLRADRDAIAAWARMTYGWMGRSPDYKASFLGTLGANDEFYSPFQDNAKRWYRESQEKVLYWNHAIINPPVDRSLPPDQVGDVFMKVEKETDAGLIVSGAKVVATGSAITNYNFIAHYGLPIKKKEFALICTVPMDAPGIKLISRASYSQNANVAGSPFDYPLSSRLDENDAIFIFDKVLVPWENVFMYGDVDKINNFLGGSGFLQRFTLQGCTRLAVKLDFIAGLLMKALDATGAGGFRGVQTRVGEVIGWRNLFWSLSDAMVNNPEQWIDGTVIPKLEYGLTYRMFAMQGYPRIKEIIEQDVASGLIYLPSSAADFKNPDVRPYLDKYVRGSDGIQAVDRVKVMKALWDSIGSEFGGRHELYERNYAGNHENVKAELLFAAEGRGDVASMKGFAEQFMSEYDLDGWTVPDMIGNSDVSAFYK

Turning to `Oc1ccccc1` [phenol], in assay [1], the “HPLC of substrate depletion” value was “The ortho hydroxylation enzyme activity to phenol, 4-chlorophenol”.

Take `Oc1ccc(Cl)cc1` [4-chlorophenol]: in assay [2], the “HPLC of substrate depletion, product by LC-MS” value is listed as “The ortho hydroxylation enzyme activity to phenol, 4-chlorophenol”.
